Measurements reported in US6607723B1, “Methods and compositions for attenuating antibody-mediated xenograft rejection in human recipients” (priority 1991, dated 2003).

What was measured:
[1] = test system: pig kidney cell line (LLC-PK1); experiment: Chromium release assay, plasma incubated with soluble carbohydrate haptens; assay type: cell-based; settings: heat inactivated human plasma (O and A), 1 ml incubated overnight at 4° C. with 0.215 g hapten; FIGS. 8A and 8B
Experimental: Undiluted heat-inactivated plasma (100 μl) was incubated with 100 μl of chromium-labelled target cells (2×10^4 cells) in 96 well V bottom microtiter plates (Dynatech Lab., Chantilly, Va., U.S.A.: Cat.# 1-220-25X) at 37° C. for 1 hour with shaking (20 rpm). A 1/15 dilution of rabbit complement (LOWTOX-M from Cedarlane Laboratories Ltd., Hornby, Ontario, Canada: Cat.# CL3051) was added to each well. The plate was again incubated for 1 hour at 37° C. with shaking. Plates were then spun at 1000 rpm and supernatants were counted for chromium content in the Beckman gamma 4000 counter (Beckman Instruments, Inc., Fullerton, Calif., U.S.A.). Spontaneous and total release controls were also run. Spontaneous counts were always less than 5% of the total counts, and typical total counts of cells ranged from 10,000 to 20,000 cpm.
This procedure was done to investigate the potential for inhibiting human preformed cytotoxic antibodies with carbohydrate(s) haptens. […] The chromium release assay was then performed with treated and untreated plasma; the pig kidney cell line (LLC-PK1) was used as the target cell.

[2] = test system: Human Anti-Pig Kidney antibodies; experiment: ELISA: human antibodies eluted from pig kidney binding to carbohydrate-BSA antigens; settings: BSA well O.D. subtracted
Experimental: (§1) Organs from two populations of pigs were used to purify human anti-pig antibodies. The pig strains were Poland China and Yorkshire. Antibody preparations were obtained by perfusing 100-200 ml of human plasma (O or AB) through pig hearts, pig kidneys or through a column containing solid support coated with pig red cell stroma. After washing the tissues thoroughly with 0.15 M NaCl, the retained antibodies were eluted from the tissue or column using 200 ml of 3M NaSCN. The antibodies were concentrated, and then the protein content determined. Carbohydrate antigens were made by covalent binding of the synthetic oligosaccharides with an aliphatic linking arm (CH2)8COOCH3 to BSA as described by Pinto and Bundle (1983)^19 and/or Lemieux, Bundle, Baker (U.S. Pat. No. 4,137,401)^13 (ten to twenty haptens per molecule of BSA). Example 5, infra, describes this procedure as applied to carbohydrate 2 of FIG. 1A. Structures and trivial names of some of the monosaccharides and oligosaccharides used are included in FIGS. 1A to 1H. The use of synthetic carbohydrate structures to detect antibody binding has been previously described in U.S. Pat. No. 4,137,401^13. The technology used for the ELISA assay for detecting anti-carbohydrate antibodies is a combination of the work from numerous groups. Wells in 96 microtitration plates (Flow Laboratories, Inc., McLean Va., U.S.A.) were coated by incubation at room temperature for 16 hours with 2 μg of BSA-glycoconjugates or BSA per well (20 μg BSA-conjugate/ml diluted in PBS). The coating solutions were removed and 200 μl/well of PBS containing 5% BSA was added. After a 4 hours incubation (22° C.), the wells were washed twice with PBS, then once with H2O. The plates were inverted, allowed to dry, and stored at room temperature. Immediately before testing, 200 μl of PBS containing 1% BSA (1% BSA/PBS) was added to each of the wells and left to stand for 10 to 20 minutes at ambient temperature. The human anti-pig preparations were diluted to between 15 to 70 μg of eluted protein per ml of 1% BSA/PBS. The BSA/PBS was removed and 100 μl of diluted anti-pig preparation was added to the appropriate wells, then incubated at 4° C. for 16 hours. The antibody preparations were removed and the wells were washed 4 times with PBS (200 μl/wash). Alkaline phosphatase-conjugated reagents (anti-human polyvalent (α, γ and μ chain specific), anti-human IgG (γ chain specific) and anti-human IgM (μ chain specific)) from Sigma Chemical Company (St. Louis, Mo., U.S.A.) were each diluted 1/500 in 1% BSA/PBS. One hundred μl of this mixture was added to each well. After 2 hours, wells were washed four times with PBS, then 100 μl/well of 1.0 mg of p-nitrophenyl phosphate/ml of 1 M diethanolamine-HCl (pH 9.8) containing 19% BSA and 500 μM MgCl2 was added. After 1 hour, optical densities at 405 nm (O.D.) were measured using a Microplate Autoreader (Model EL 309, BIO-TEK Instruments, Winooski, Vt., U.S.A.). The O.D. results for BSA-coated wells were subtracted from the results for the glycoconjugate-BSA-coated wells for each preparation. The assays were performed in duplicate.

[3] = test system: Human Anti-Pig Heart antibodies; experiment: ELISA: human antibodies eluted from pig heart binding to carbohydrate-BSA antigens; settings: for Optical Density (405 nm): BSA well O.D. subtracted; for O.D. readings: most of the human anti-pig heart preparations
Experimental: as §1

[4] = test system: human antibodies eluted from pig heart, pig kidney and/or pig red cell stroma; experiment: ELISA: human anti-pig antibody preparations overall binding to carbohydrate antigens
Experimental: Organs from two populations of pigs were used to purify human anti-pig antibodies. The pig strains were Poland China and Yorkshire. Antibody preparations were obtained by perfusing 100-200 ml of human plasma (O or AB) through pig hearts, pig kidneys or through a column containing solid support coated with pig red cell stroma. After washing the tissues thoroughly with 0.15 M NaCl, the retained antibodies were eluted from the tissue or column using 200 ml of 3M NaSCN. The antibodies were concentrated, and then the protein content determined. Carbohydrate antigens were made by covalent binding of the synthetic oligosaccharides with an aliphatic linking arm (CH2)8COOCH3 to BSA as described by Pinto and Bundle (1983)^19 and/or Lemieux, Bundle, Baker (U.S. Pat. No. 4,137,401)^13 (ten to twenty haptens per molecule of BSA). Example 5, infra, describes this procedure as applied to carbohydrate 2 of FIG. 1A. Structures and trivial names of some of the monosaccharides and oligosaccharides used are included in FIGS. 1A to 1H. The use of synthetic carbohydrate structures to detect antibody binding has been previously described in U.S. Pat. No. 4,137,401^13. […] After 1 hour, optical densities at 405 nm (O.D.) were measured using a Microplate Autoreader (Model EL 309, BIO-TEK Instruments, Winooski, Vt., U.S.A.). […]

[5] = Human Anti-Pig Kidney preparation 5 A°, human O plasma adsorbed onto tissue
[6] = Human Anti-Pig Kidney preparation 5 B^AB, human AB plasma adsorbed onto tissue
[7] = Human Anti-Pig Kidney preparation 6 A°, human O plasma
[8] = Human Anti-Pig Kidney preparation 6 B^AB, human AB plasma
[9] = Human Anti-Pig Kidney preparation 7 A^AB, human AB plasma
[10] = Human Anti-Pig Kidney preparation 7 B°, human O plasma
[11] = Human Anti-Pig Kidney preparation 8 A°, human O plasma, pig of A-phenotype
[12] = Human Anti-Pig Kidney preparation 9 B^AB, human AB plasma
[13] = Human Anti-Pig Heart preparation 5^AB, human AB plasma
[14] = Human Anti-Pig Heart preparation 6°, human O plasma
[15] = Human Anti-Pig Heart preparation 7^AB, human AB plasma
[16] = Human Anti-Pig Heart preparation 9°, human O plasma

Optical Density (405 nm) [2, 5] | Optical Density (405 nm) [2, 6] | Optical Density (405 nm) [2, 7] | Optical Density (405 nm) [2, 8] | Optical Density (405 nm) [2, 9] | Optical Density (405 nm) [2, 10] | Optical Density (405 nm) [2, 11] | Optical Density (405 nm) [2, 12] | Optical Density (405 nm) [3, 13] | Optical Density (405 nm) [3, 14] | Optical Density (405 nm) [3, 15] | Optical Density (405 nm) [3, 16] | O.D. readings [3] | Compound | cytotoxic effect of antibodies to the pig cell line [1] | antibodies to the carbohydrate present in eluted antibody preparations ([4]; every preparation of antibodies tested (Table 1)) | reactivity in ELISA ([4]; majority of samples tested, including anti-pig heart and anti-pig kidney)
0.4 | 0.3 | 0.2 | 0.4 | 0.9 | 0.1 | 0.0 | 0.1 | 0.5 | 0.2 | >2.0 | 1.7 | some of the highest readings | CC(=O)N[C@@H]1[C@@H](O)[C@H](O[C@@H]2O[C@H](CO)[C@@H](O)[C@H](O)[C@H]2NC(C)=O)[C@@H](CO)O[C@H]1O [formula 26, βGlcNAc(1-4)βGlcNAc] | – | – | –
1.4 | 0.8 | 0.1 | 0.3 | 1.9 | 0.8 | 0.1 | 0.1 | 1.0 | 0.3 | 1.6 | 1.1 | some of the highest readings | CC(=O)N[C@H]1[C@H](O[C@@H]2[C@H](O)[C@@H](O)[C@H](C)O[C@H]2O)O[C@H](CO)[C@@H](O)[C@@H]1O[C@@H]1O[C@@H](C)[C@H](O)[C@@H](O)[C@H]1O [formula 32, α-L-Rha(1-3)βGlcNAc(1-2)α-L-Rha] | – | – | –

Further lines, the compound ahead of its results:

Compound | Optical Density (405 nm) [2, 5] | Optical Density (405 nm) [2, 6] | Optical Density (405 nm) [2, 7] | Optical Density (405 nm) [2, 8] | Optical Density (405 nm) [2, 9] | Optical Density (405 nm) [2, 10] | Optical Density (405 nm) [2, 11] | Optical Density (405 nm) [2, 12] | Optical Density (405 nm) [3, 13] | Optical Density (405 nm) [3, 14] | Optical Density (405 nm) [3, 15] | Optical Density (405 nm) [3, 16] | O.D. readings [3] | cytotoxic effect of antibodies to the pig cell line [1] | antibodies to the carbohydrate present in eluted antibody preparations ([4]; every preparation of antibodies tested (Table 1)) | reactivity in ELISA ([4]; majority of samples tested, including anti-pig heart and anti-pig kidney)
C[C@@H]1O[C@@H](O[C@H]2C(O)O[C@H](CO)[C@H](O)[C@@H]2O[C@H]2O[C@H](CO)[C@H](O)[C@H](O)[C@H]2O)[C@@H](O)[C@H](O)[C@@H]1O (stereo partly shown) [B trisaccharide] | – | – | – | – | – | – | – | – | – | – | – | – | – | partially inhibited | – | –
C[C@@H]1O[C@@H](O)[C@H](O)[C@H](O)[C@H]1O [formula 31, α-L-Rhamnose] | 0.2 | 0.0 | 0.3 | 0.5 | 1.7 | 0.1 | 0.0 | 0.1 | 0.7 | 0.4 | >2.0 | 0.6 | some of the highest readings | – | – | –
(αGal(1-3)βGal(1-4)βGlc-O—(CH2)8CONH)17-BSA [formula 2] | 1.9 | 1.3 | >2.0 | >2.0 | 0.8 | 1.8 | 1.2 | >2.0 | 1.0 | 0.3 | 1.2 | 0.8 | – | – | present in every preparation | most reactivity
N-acetyl-β-D-Glucosaminide [formula 25] | 0.5 | 0.7 | 0.4 | 1.0 | 1.1 | 0.5 | 0.1 | 0.1 | 2.0 | 0.4 | >2.0 | 1.5 | some of the highest readings | – | – | –
